Source: patent US7566737B2 (Genfit, priority 2002, dated 2009)

Legend:
human PPARα = target: T1, human PPARα (Homo sapiens, UniProt Q07869); assay: PPARα/Gal4 transactivation system; assay type: cell-based; conditions: for concentration at which maximal activity is observed: PPAR/Gal4 transactivation system
T1 construct: expressed in transfected cells; host or cells: RK13 or COS-7
T1 sequence (Q07869 239-466 limits assumed): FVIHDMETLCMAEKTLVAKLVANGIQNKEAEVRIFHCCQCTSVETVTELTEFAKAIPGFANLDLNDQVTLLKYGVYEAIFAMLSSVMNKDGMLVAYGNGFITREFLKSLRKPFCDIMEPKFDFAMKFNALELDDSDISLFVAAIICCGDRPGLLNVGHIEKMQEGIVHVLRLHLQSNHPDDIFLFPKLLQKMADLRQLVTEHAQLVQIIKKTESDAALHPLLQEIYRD
Method: (§1) PPAR activation was tested in vitro in RK13 or COS-7 fibroblast cell lines by measuring the transcriptional activity of chimeras composed of the DNA binding domain of the yeast Gal4 transcription factor and the ligand binding domain of the different PPARs. These latter results were then confirmed in cell lines according to the following protocols.
(§2) Culture protocols: RK13 were from ECACC (Porton Down, UK) and were grown in DMEM medium supplemented with 10% (V/V) fetal calf serum, 100 U/ml penicillin (Gibco, Paisley, UK) and 2 mM L-glutamine (Gibco, Paisley, UK). COS-7 cells were from ATCC and were grown in DMEM medium supplemented with 10% (V/V) fetal calf serum, 1% penicillin/streptomycine (Biochrom, AG), 1% of amino acids (Gibco) and 1% sodium pyruvate (Gibco).
(§3) The culture medium was changed every two days. Cells were kept at 37° C. in a humidified 95% air/5% CO2 atmosphere.
(§4) Description of plasmids used for transfection: The plasmids Gal4(RE)_TkpGL3, pGal4-hPPARα, pGal4-hPPARγ, pGal4-hPPARδ and pGal4-φ have been described in the literature (Raspe E et al., 1999). The pGal4-hPPARα, pGal4-hPPARγ and pGal4-hPPARδ constructs were obtained by cloning into the pGal4-φ vector PCR-amplified DNA fragments corresponding to the DEF domains of the human PPARs nuclear receptors.
(§5) Transfection of RK13: RK13 cells were seeded in 24-well culture dishes at 5×10^4 cells/well and transfected for 2 hours with the reporter plasmid Gal4(RE)_TkpGL3 (50 ng/well), the expression vectors pGal4-φ, pGal4-hPPARα, pGal4-hPPARγ and pGal-hPPARδ (100 ng/well) and the transfection efficiency control vector pRL-CMV (1 ng/well) according to the previously described protocol (Raspe E, Madsen L, Lefebvre A M, Leitersdorf I, Gelman L, Peinado-Onsurbe J, Dallongeville J, Fruchart J C, Berge R and Staels B, 1999), then incubated for 36 hours with the test compounds. RK13 cells were incubated with the different compounds at concentrations of 10, 30 and 100 μM or 1, 10 and 100 μM for 24 hours. At the end of the experiment, the cells were lysed (Gibco, Paisley, UK) and luciferase activity was determined with a Dual-Luciferase™ Reporter Assay System kit (Promega, Madison, Wis., USA) according to the supplier's instructions. The protein content of the cell extracts was then measured with the Bio-Rad Protein Assay (Bio-Rad, Munich, Germany) as directed by the supplier.
(§6) Transfection of COS7: Cells in suspension are transfected, in the presence of 10% (V/V) fetal calf serum, with 150 ng of DNA per well with a pGal4-PPAR/Gal4(RE)_TkpGL3 ratio of 1/10. Cells are then seeded in 96 well plates (4×10^4 cells/well) and incubated for 24 hours at 37° C. Activation with compounds is performed on 24 hours at 37° C. in culture medium without serum. At the end of the activation period, cells are lysed and luciferase activity is determined, using the Steady Glow Luciferase Kit (Promega), according to the supplier's instructions.

LDL = assay: Protection against LDL oxidation by copper (conjugated diene formation); assay type: biochemical; conditions: for lag phase of conjugated diene formation / rate of conjugated diene formation: 10^−4M
Method: LDL oxidation is an important alteration and plays a predominant role in the establishment and development of atherosclerosis (Jurgens G et al., 1987). […] Unless otherwise indicated, the reagents were from Sigma (St Quentin, France). LDL were prepared according to the method described by (Havel R J et al., 1955). The solutions of test compounds were prepared at 10^−2 M concentration in bicarbonate buffer (pH 9) and diluted in PBS to obtain final concentrations ranging from 0.1 to 100 μM for a total ethanol concentration of […]. Prior to oxidation, EDTA was removed from the LDL preparation by dialysis. Oxidation then took place at 30° C. by addition of 100 μl of 16.6 μM CuSO4 solution to 160 μL of LDL (125 μg protein/ml) and 20 μl of a test compound solution. The formation of dienes, the species under observation, was followed by measuring optical density at 234 nm in the samples treated with the compounds but in the presence or absence of copper. Optical density at 234 nm was measured every 10 minutes for 8 hours in a thermostated spectrophotometer (Tecan Ultra 380). The compounds were considered to have antioxidant activity when they induced a longer lag phase and reduced the rate of oxidation and the amount of dienes formed in comparison with the control sample.

[1] = test system: hApoE2 Knock-in transgenic mice; assay: Effects on triglycerides and cholesterol metabolism in vivo; set-up: species or system mouse
Method: Treatment of animals: hApoE2 knock-in transgenic mice were kept on a 12-hour light/dark cycle at a constant temperature of 20±3° C. After a 1 week acclimation, mice were separated in groups of 6 animals selected such that the distribution of their body weight and plasmatic lipid levels determined before the experiment were uniform. The test compounds were suspended in carboxymethylcellulose and administered by intragastric gavage at the indicated doses, once a day for 7 or 8 days. Animals had access to food and water ad libitum. At the end of the experiment the animals were weighed and sacrificed under anesthesia. Blood was collected on EDTA. Plasma was prepared by centrifugation at 3000 rpm for 20 minutes. Organs were harvested, frozen in liquid nitrogen and stored at −80° C. for subsequent analysis.
Measurement of serum lipids: Serum lipid concentrations (total cholesterol and triglycerides) were determined by a colorimetric assay (Boehringer, Mannheim, Germany) according to the supplier's instructions.

human PPARγ = target: T2, human PPARγ (Homo sapiens, UniProt P37231); assay: PPARγ/Gal4 transactivation system; assay type: cell-based
T2 construct: expressed in transfected cells; host or cells: RK13 or COS-7
T2 sequence (P37231 238-503 limits assumed): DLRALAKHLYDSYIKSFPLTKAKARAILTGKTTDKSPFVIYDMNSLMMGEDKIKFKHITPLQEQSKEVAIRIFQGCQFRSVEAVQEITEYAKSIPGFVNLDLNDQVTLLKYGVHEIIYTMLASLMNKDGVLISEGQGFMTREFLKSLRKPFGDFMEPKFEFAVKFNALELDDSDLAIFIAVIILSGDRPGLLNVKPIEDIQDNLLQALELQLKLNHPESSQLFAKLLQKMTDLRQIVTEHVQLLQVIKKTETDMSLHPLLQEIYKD
Method: as §1, §2, §3, §4, §5, §6

HaCat cells = assay: Antioxidant properties on cell cultures (carboxy-H2DCFDA fluorescence, AAPH stress), keratinocytes; assay type: cell-based, human; conditions: AAPH 750 μM; for antioxidant properties on cell cultures (in words): 25 μM for 24 h
Method: (§7) The reduction in the intensity of the emitted fluorescence signal was determined in cells treated with the compounds in the following manner.
(§8) Prior to stress the cells with an oxidative agent such as AAPH (CAS number 2997-92-4), cells are incubated with compounds of interest at 25 μM for 24 h. Then the culture medium is discarded and cells are rinsed two times with PBS. Cells are then incubated 30 min at 37° C. with a cell-permeant indicator for reactive oxygen species that is nonfluorescent until the acetate groups are removed by intracellular esterases and oxidation occurs within the cell 5-(and-6)-carboxy-2′,7′-dichlorodihydrofluorescein diacetate (carboxy-H2DCFDA). The probes are prepared in PBS and incubated at the final concentration of 25 μM. After the incubation with the probe, cells are rinsed and incubated another 30 min with the oxidative solution containing AAPH at 750 μM in culture medium without phenol red and serum.
(§9) The fluorescence is then measured with a fluorimeter with the following wavelength, […].
(§10) Two different cell types have been tested with the inventive compounds. Human normal primary fibroblasts and HaCat cells which are a human keratinocyte cell line.

[2] = test system: Human normal primary fibroblasts; assay: Antioxidant properties on cell cultures (carboxy-H2DCFDA fluorescence, AAPH stress), fibroblasts; assay type: cell-based; conditions: AAPH 750 μM; for antioxidant properties on cell cultures (in words): 25 μM for 24 h
Method: as §7, §8, §9, §10

human PPARδ = target: T3, human PPARδ (Homo sapiens, UniProt Q03181); assay: PPARδ/Gal4 transactivation system; assay type: cell-based
T3 construct: expressed in transfected cells; host or cells: RK13 or COS-7
T3 sequence (Q03181 211-439 limits assumed): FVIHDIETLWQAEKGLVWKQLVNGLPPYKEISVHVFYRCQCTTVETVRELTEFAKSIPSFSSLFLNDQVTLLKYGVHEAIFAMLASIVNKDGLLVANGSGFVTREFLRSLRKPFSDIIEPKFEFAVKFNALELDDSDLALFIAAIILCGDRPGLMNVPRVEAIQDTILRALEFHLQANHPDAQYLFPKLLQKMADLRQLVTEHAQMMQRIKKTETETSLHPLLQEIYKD
Method: as §1, §2, §3, §4, §5
Transfection of COS7: Cells in suspension are transfected, in the presence of 10% (V/V) fetal calf serum, with 150 ng of DNA per well with a pGal4-PPAR/Gal4(RE)_TkpGL3 ratio of 1/10. […] At the end of the activation period, cells are lysed and luciferase activity is determined, using the Steady Glow Luciferase Kit (Promega), according to the supplier's instructions.

[3] = 50 mg/kg/day for 7 or 8 days, FIGS. 4-13, 4-15, 4-17, 4-19
[4] = 50 mg/kg/day for 7 or 8 days, FIGS. 4-14, 4-16, 4-18, 4-20
[5] = PPAR/Gal4 transactivation system

induction factor (luminescent signal relative to untreated cells) (human PPARα; 10 μM) | induction factor (luminescent signal relative to untreated cells) (human PPARα; 100 μM) | concentration at which maximal activity is observed (human PPARα) | activation of PPAR γ (in words) (human PPARγ; [5]) | activation of PPAR δ (in words) (human PPARδ) | SMILES | antioxidant properties on cell cultures (in words) (HaCat cells) | antioxidant properties on cell cultures (in words) [2] | plasma cholesterol [1, 3] | plasma triglycerides [1, 4] | other results
85 | 13.8 |  |  |  | Cc1cc(/C=C/C(=O)c2ccc(Cl)cc2)cc(C)c1OC(C)(C)C(=O)O [Compound 17, 1-[4-chlorophenyl]-3-[3,5-dimethyl-4-carboxydimethylmethyloxyphenyl]prop-2-en-1-one] |  |  |  |  | lag phase of conjugated diene formation (LDL; FIG. 1-1, copper alone 111 minutes): 203 min; rate of conjugated diene formation (LDL; FIG. 1-2, copper alone 2): 1.7 nmol/min/mg of LDL; cholesterol in lipoparticle subfraction (exclusion chromatography) ([1]; gavage 200 mg/kg for 7 days): decreased; plasma concentration of cholesterol ([1]; gavage 200 mg/kg for 7 days): decrease; plasma concentration of triglycerides ([1]; gavage 200 mg/kg for 7 days): decrease; triglycerides in lipoparticle subfraction (exclusion chromatography) ([1]; gavage 200 mg/kg for 7 days): decreased; maximum induction factor (human PPARγ; 10 μM): 25
44 | 77 |  |  |  | CCCCCCOc1ccc(C(=O)/C=C/c2cc(C)c(OC(C)(C)C(=O)O)c(C)c2)cc1 [Compound 33, 1-[4-hexyloxyphenyl]-3-[3,5-dimethyl-4-carboxydimethylmethyloxyphenyl]prop-2-en-1-one] | antioxidant properties | antioxidant properties |  |  | induction factor (luminescent signal relative to untreated cells) (human PPARα; 1 μM): 22; lag phase of conjugated diene formation (LDL; FIG. 1-9, copper alone 80 minutes): 247 min; rate of conjugated diene formation (LDL; FIG. 1-10, copper alone 1.9): 0.8 nmol/min/mg of LDL; maximum amount of conjugated dienes formed (LDL; FIG. 1-11, copper alone 298): 257 nmol per mg of LDL; cholesterol in lipoparticle subfraction (exclusion chromatography) ([1]; 50 mg/kg/day for 8 days): decrease; plasma cholesterol ([1]; 50 mg/kg/day for 8 days): decrease; plasma triglycerides ([1]; 50 mg/kg/day for 8 days): decrease; triglycerides in lipoparticle subfraction (exclusion chromatography) ([1]; 50 mg/kg/day for 8 days): decrease; maximum induction factor (human PPARγ; 100 μM): 45.6
 |  | 0.03 µM | can activate | can activate | Cc1cc(/C=C/C(=O)c2ccc(SC(F)(F)F)cc2)cc(C)c1OC(C)(C)C(=O)O [Compound 54, 1-[4-trifluoromethylthiophenyl]-3-[3,5-dimethyl-4-carboxydimethylmethyloxyphenyl]prop-2-en-1-one] | antioxidant properties | antioxidant properties | decrease | decrease | 
 |  | 0.3 µM |  | can activate | Cc1cc(/C=C/C(=O)c2ccc(C(F)(F)F)cc2)cc(C)c1OC(C)(C)C(=O)O [Compound 58, 1-[4-trifluoromethylphenyl]-3-[3,5-dimethyl-4-carboxydimethylmethyloxyphenyl]prop-2-en-1-one] | antioxidant properties | antioxidant properties | decrease | decrease | concentration at which maximal activity is observed (human PPARγ; [5]): 1 µM
 |  | 0.03 µM | can also activate | can also activate | CCCOc1ccc(C(=O)/C=C/c2cc(C)c(OC(C)(C)C(=O)O)c(C)c2)cc1 [Compound 70, 1-[4-propyloxyphenyl]-3-[3,5-dimethyl-4-carboxydimethylmethyloxyphenyl]prop-2-en-1-one] |  |  | decrease | decrease | % of oxidative reduction versus control cells (HaCat cells; compounds at 25 μM for 24 h): 47%; % of oxidative reduction versus control cells ([2]; compounds at 25 μM for 24 h): 53%
